Entries after “also recorded” stand apart in the source; their conditions may differ.
Tests used:
[1] = test system: MCAO cerebral ischemia-reperfusion (IR) mice; experiment: MCAO cerebral ischemia-reperfusion (IR) mouse model, infarct area by TTC staining; assay type: in vivo, C57BL/6J mice; settings: for Infarct area percentage (%) X ± SD: IR mice, po, QD, from 4 days before surgery, 1 h ischemia, 24 h reperfusion, IR model group 48.42 ± 24.21; for Infarcted area compared with the IR group mice (in words): oral administration
Description: A surgical incision was made in the neck to expose a left common carotid artery (CCA), an internal carotid artery (ICA), and an external carotid artery (ECA). A pre-made filament was inserted through the external carotid artery into the internal carotid artery and advanced to a middle cerebral artery (MCA), causing ischemia in a left brain region. After 60 minutes of occlusion, the filament was removed to achieve reperfusion in the left brain region. FIG. 5 is a schematic diagram illustrating the MCAO cerebral ischemia model using the intraluminal filament approach.
1. Animal anesthesia and neck preparation: the mice were anesthetized by inhalation of 2% isoflurane gas. After muscle relaxation, the four limbs of the mice were fixed to an operating table with 3M medical tape. Depilatory cream was used to remove the hair on a side of the neck, and erythromycin eye ointment was applied to the eyeballs of the mice to prevent eye dryness.
2. Surgical incision: the neck skin was disinfected sequentially with iodophor and 75% alcohol cotton balls. A 3 cm incision was made along the midline of the neck. Under a stereomicroscope, the subcutaneous tissue and fat were bluntly dissected, the superficial fascia and platysma were incised to expose the deep fascia of the neck and the anterior tracheal muscle. After the anterior tracheal muscle was exposed, the deep cervical fascia was torn along an anterior edge of the left sternocleidomastoideole, exposing the sternocleidomastoideole, which was then pulled posteriorly. The dissection continued downward along the sternocleidomastoideole until the deeper carotid sheath was exposed.
3. Vessel exposure and isolation: while avoiding compression of the mouse trachea, the carotid sheath was incised, and the common carotid artery (CCA) was isolated, taking care not to damage the vagus nerve running alongside in the sheath, as simulation or injury to the nerve may cause sudden respiratory arrest in the animal. The dissection continued upward along the common carotid artery, and the external carotid artery was identified at an upper edge of the thyroid cartilage. […] A proximal end of the external carotid artery was gently lifted to expose the internal carotid artery located laterally and inferiorly.
4. […] The internal carotid artery was temporarily clamped with a microvascular clip. […] The branch vessels were coagulated using an electrocautery pen. A distal end of the external carotid artery was permanently ligated with a 6-0 silk ligature, while the proximal end was looped for later use.
5. Filament insertion: a small incision was made at a ligated distal end of the external carotid artery, and the filament was threaded through the incision and tied with the pre-prepared loop ligature. The incision was cut off, and the filament was adjusted and threaded into the internal carotid artery. […] The ligature was tightened to fix the filament and timing started immediately.
6. After suturing the skin, anesthesia was discontinued. Following 60 minutes of ischemia, the filament was removed to complete cerebral ischemia-reperfusion.
7. Close the incision: the incision was closed using interrupted 4-0 sutures, disinfected with iodophor, and 3 mL of saline was injected intraperitoneally for rehydration. Postoperative analgesia jelly was provided, and the mice were kept warm and monitored continuously until they recover from anesthesia.
C57BL/6J male mice, aged 8 weeks, were acclimatized for 1 week and then randomly assigned to 7 groups. Except for eight mice in the blank control group (i.e., the sham-operated control group), the remaining mice underwent MCAO surgery to induce cerebral ischemia and were randomly divided into 6 groups, including an IR model group, a TAK875 group (12 mice per group), and four LY2922470 groups with different concentrations (8 mice per group). […]

[2] = test system: MCAO cerebral ischemia-reperfusion (IR) mice; settings: male, C57BL/6J, mouse, in vivo, 5 days

In the case of `CC#C[C@@H](CC(=O)O)c1ccc(OCc2ccc(CN3CCCc4cccc(OC)c43)s2)cc1` [LY2922470], the “Infarct area percentage (%) X ± SD” value ([1]; LY2922470 10 mg/kg) is reported as 26.77 ± 14.54 (*) %, the “Infarct area percentage (%) X ± SD” value ([1]; LY2922470 20 mg/kg) is reported as 30.55 ± 16.52% and the “Infarct area percentage (%) X ± SD” value ([1]; LY2922470 40 mg/kg) is reported as 20.4 ± 6.88 (**) %. The “Infarct area percentage (%) X ± SD” value ([1]; LY2922470 80 mg/kg) was 31.03 ± 17.8%, the “Infarcted area in the brain compared with the IR group mice (in words)” value ([1]; LY2922470 10 mg/kg) was “significantly reduced” and the “Infarcted area in the brain compared with the IR group mice (in words)” value ([1]; LY2922470 40 mg/kg) was “significantly reduced”. The “Infarcted area compared with the IR group mice (in words)” value ([1]; different doses of LY2922470 (10-80 mg/kg)) was “the infarcted area in the mice was reduced; also recorded: significantly decreased”.
For `Cc1cc(OCCCS(C)(=O)=O)cc(C)c1-c1cccc(COc2ccc3c(c2)OC[C@H]3CC(=O)O)c1` [TAK875], the “Time of death after reperfusion” value [2] was 18 h, the “Deaths after MCAO cerebral ischemia surgery” value ([2]; po, 30 mg/kg) was “one from the TAK875 group died” and the “Infarct area percentage (%) X ± SD” value ([1]; TAK875 30 mg/kg) was 48.9 ± 25.13%. The “Infarcted area compared with the IR group mice (in words)” value ([1]; TAK875 30 mg/kg) was “no significant decrease in the size of the infarcted area”.

— patent US20250195499A1, “METHODS FOR PREVENTING OR TREATING CEREBROVASCULAR DISEASES OR TISSUE ISCHEMIA-REPERFUSION INJURY” (CO., LTD. OF JEAMOON TECHNOLOGY, priority 2022, published 2025)
